The source of these data is US20100210539A1, “USE OF PEPTIDE LL-37 AS A THERAPEUTIC AGENT” (priority 2007, published 2010).

Molecules are shown by their SMILES.

Broadly, the % inhibition is how much of the control response was suppressed. Read a low % inhibition as a response near the control.

For the test, the system named is drug-resistant Mycobacterium tuberculosis. Conditions: peptide 10 micrograms per ml, seven days.

With `CC[C@H](C)[C@H](NC(=O)[C@H](CCCCN)NC(=O)[C@H](CCC(=O)O)NC(=O)[C@H](CCCCN)NC(=O)[C@H](CO)NC(=O)[C@H](CCCCN)NC(=O)[C@H](CCCNC(=N)N)NC(=O)[C@H](Cc1ccccc1)NC(=O)[C@H](Cc1ccccc1)NC(=O)[C@H](CC(=O)O)NC(=O)CNC(=O)[C@H](CC(C)C)NC(=O)[C@@H](N)CC(C)C)C(=O)NCC(=O)N[C@@H](CCCCN)C(=O)N[C@@H](CCC(=O)O)C(=O)N[C@@H](Cc1ccccc1)C(=O)N[C@@H](CCCCN)C(=O)N[C@@H](CCCNC(=N)N)C(=O)N[C@H](C(=O)N[C@H](C(=O)N[C@@H](CCC(N)=O)C(=O)N[C@@H](CCCNC(=N)N)C(=O)N[C@H](C(=O)N[C@@H](CCCCN)C(=O)N[C@@H](CC(=O)O)C(=O)N[C@@H](Cc1ccccc1)C(=O)N[C@@H](CC(C)C)C(=O)N[C@@H](CCCNC(=N)N)C(=O)N[C@@H](CC(N)=O)C(=O)N[C@@H](CC(C)C)C(=O)N[C@H](C(=O)N1CCC[C@H]1C(=O)N[C@@H](CCCNC(=N)N)C(=O)N[C@H](C(=O)N[C@@H](CCC(=O)O)C(=O)N[C@@H](CO)C(N)=O)[C@@H](C)O)C(C)C)[C@@H](C)CC)C(C)C)[C@@H](C)CC` [LL-37], the “% inhibition” value came to 0.0%.
